Experiments:
barnyard grass [1] = test: Test Example 3: herbicidal effect by foliage application, Wagner pot (Table 18, symbol H); type: in vivo, barnyard grass (Echinochloa crus-galli); details: amount of applied herbicide 320 g/ha
Method in brief: (§1)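 Plants were sown in alluvial soil held under 0.1–0.5 cm standing water and grown 14 days in a greenhouse at 25–30 °C. An emulsifiable formulation, water-diluted to the set dose, was then sprayed onto the foliage, and effects were scored three weeks later using previously defined criteria.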

Chinese sprangletop = test: Test Example 3: herbicidal effect by foliage application, Wagner pot (Table 18, symbol D); type: in vivo, chinese sprangletop (Leptochloa chinensis); details: amount of applied herbicide 320 g/ha
Method in brief: as §1

rice flat sedge = test: Test Example 3: herbicidal effect by foliage application, Wagner pot (Table 18, symbol E); type: in vivo, rice flat sedge (Cyperus iria); details: amount of applied herbicide 320 g/ha
Method in brief: as §1

southern crabgrass [2] = test: Test Example 4: herbicidal effect by soil treatment (Table 19, symbol F); type: in vivo, southern crabgrass (Digitaria ciliaris); details: amount of applied herbicide 320 g/ha
Method in brief: (§2)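 Pre-emergence style soil spray: seeds under ~1.5 cm sterilized diluvial soil received a uniform coat of emulsion diluted to the predetermined herbicide amount. Greenhouse 25–30° C; readout at week three on previously defined criteria.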

green foxtail [3] = test: Test Example 4: herbicidal effect by soil treatment (Table 19, symbol G); type: in vivo, green foxtail (Setaria viridis); details: amount of applied herbicide 320 g/ha
Method in brief: as §2

barnyard grass [4] = test: Test Example 4: herbicidal effect by soil treatment (Table 19, symbol H); type: in vivo, barnyard grass (Echinochloa crus-galli); details: amount of applied herbicide 320 g/ha
Method in brief: as §2

wild oat [5] = test: Test Example 4: herbicidal effect by soil treatment (Table 19, symbol I); type: in vivo, wild oat (Avena fatua); details: amount of applied herbicide 320 g/ha
Method in brief: as §2

blackgrass [6] = test: Test Example 4: herbicidal effect by soil treatment (Table 19, symbol J); type: in vivo, blackgrass (Alopecurus myosuroides); details: amount of applied herbicide 320 g/ha
Method in brief: as §2

Italian ryegrass [7] = test: Test Example 4: herbicidal effect by soil treatment (Table 19, symbol K); type: in vivo, Italian ryegrass (Lolium multiflorum); details: amount of applied herbicide 320 g/ha
Method in brief: as §2

windgrass [8] = test: Test Example 4: herbicidal effect by soil treatment (Table 19, symbol L); type: in vivo, windgrass (Apera spica-venti); details: amount of applied herbicide 320 g/ha
Method in brief: as §2

velvetleaf [9] = test: Test Example 4: herbicidal effect by soil treatment (Table 19, symbol M); type: in vivo, velvetleaf (Abutilon theophrasti); details: amount of applied herbicide 320 g/ha
Method in brief: as §2

redroot pigweed [10] = test: Test Example 4: herbicidal effect by soil treatment (Table 19, symbol N); type: in vivo, redroot pigweed (Amaranthus retroflexus); details: amount of applied herbicide 320 g/ha
Method in brief: as §2

lambsquarters [11] = test: Test Example 4: herbicidal effect by soil treatment (Table 19, symbol O); type: in vivo, lambsquarters (Chenopodium album); details: amount of applied herbicide 320 g/ha
Method in brief: as §2

chickweed [12] = test: Test Example 4: herbicidal effect by soil treatment (Table 19, symbol P); type: in vivo, common chickweed (Stellaria media); details: amount of applied herbicide 320 g/ha
Method in brief: as §2

false cleavers = test: Test Example 4: herbicidal effect by soil treatment (Table 19, symbol Q); type: in vivo, false cleavers (Galium spurium); details: amount of applied herbicide 320 g/ha
Method in brief: as §2

persian speedwell [13] = test: Test Example 4: herbicidal effect by soil treatment (Table 19, symbol R); type: in vivo, Persian speedwell (Veronica persica); details: amount of applied herbicide 320 g/ha
Method in brief: as §2

southern crabgrass [14] = test: Test Example 5: herbicidal effect by foliage application, plastic box (Table 20, symbol F); type: in vivo, southern crabgrass (Digitaria ciliaris); details: foliage application, evaluated three weeks after application
Method in brief: (§3)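 Plants were sown into sterilized diluvial soil under about 1.5 cm cover and kept in a greenhouse at 25° C. to 30° C. Fourteen days on, foliage received an even spray of the diluted emulsion. Herbicidal or crop effect was judged three weeks afterwards.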

green foxtail [15] = test: Test Example 5: herbicidal effect by foliage application, plastic box (Table 20, symbol G); type: in vivo, green foxtail (Setaria viridis); details: foliage application, evaluated three weeks after application
Method in brief: as §3

barnyard grass [16] = test: Test Example 5: herbicidal effect by foliage application, plastic box (Table 20, symbol H); type: in vivo, barnyard grass (Echinochloa crus-galli); details: foliage application, evaluated three weeks after application
Method in brief: as §3

wild oat [17] = test: Test Example 5: herbicidal effect by foliage application, plastic box (Table 20, symbol I); type: in vivo, wild oat (Avena fatua); details: foliage application, evaluated three weeks after application
Method in brief: as §3

blackgrass [18] = test: Test Example 5: herbicidal effect by foliage application, plastic box (Table 20, symbol J); type: in vivo, blackgrass (Alopecurus myosuroides); details: foliage application, evaluated three weeks after application
Method in brief: as §3

Italian ryegrass [19] = test: Test Example 5: herbicidal effect by foliage application, plastic box (Table 20, symbol K); type: in vivo, Italian ryegrass (Lolium multiflorum); details: foliage application, evaluated three weeks after application
Method in brief: as §3

windgrass [20] = test: Test Example 5: herbicidal effect by foliage application, plastic box (Table 20, symbol L); type: in vivo, windgrass (Apera spica-venti); details: foliage application, evaluated three weeks after application
Method in brief: as §3

velvetleaf [21] = test: Test Example 5: herbicidal effect by foliage application, plastic box (Table 20, symbol M); type: in vivo, velvetleaf (Abutilon theophrasti); details: foliage application, evaluated three weeks after application
Method in brief: as §3

redroot pigweed [22] = test: Test Example 5: herbicidal effect by foliage application, plastic box (Table 20, symbol N); type: in vivo, redroot pigweed (Amaranthus retroflexus); details: foliage application, evaluated three weeks after application
Method in brief: as §3

lambsquarters [23] = test: Test Example 5: herbicidal effect by foliage application, plastic box (Table 20, symbol O); type: in vivo, lambsquarters (Chenopodium album); details: foliage application, evaluated three weeks after application
Method in brief: as §3

chickweed [24] = test: Test Example 5: herbicidal effect by foliage application, plastic box (Table 20, symbol P); type: in vivo, common chickweed (Stellaria media); details: foliage application, evaluated three weeks after application
Method in brief: as §3

persian speedwell [25] = test: Test Example 5: herbicidal effect by foliage application, plastic box (Table 20, symbol R); type: in vivo, Persian speedwell (Veronica persica); details: foliage application, evaluated three weeks after application
Method in brief: as §3

Structure (SMILES): COc1cc(F)ccc1-c1sc2ccc(C(C)=NOC(C)C)cc2c1-c1c(O)c(C)nn(C)c1=O [2-195]
- herbicidal effect on H: barnyard grass (barnyard grass [1]): 3 (Herbicidal rate of 40% or more and less than 70%)
- herbicidal effect on D: Chinese sprangletop (Chinese sprangletop): 0 (Herbicidal rate of 5% or less (almost no effect))
- herbicidal effect on E: rice flat sedge (rice flat sedge): 0 (Herbicidal rate of 5% or less (almost no effect))
- F: southern crabgrass, herbicidal effect rating (southern crabgrass [2]): 0 (Herbicidal rate of 5% or less (almost no effect))
- G: green foxtail, herbicidal effect rating (green foxtail [3]): 0 (Herbicidal rate of 5% or less (almost no effect))
- H: barnyard grass, herbicidal effect rating (barnyard grass [4]): 0 (Herbicidal rate of 5% or less (almost no effect))
- I: wild oat, herbicidal effect rating (wild oat [5]): 0 (Herbicidal rate of 5% or less (almost no effect))
- J: blackgrass, herbicidal effect rating (blackgrass [6]): 0 (Herbicidal rate of 5% or less (almost no effect))
- K: Italian ryegrass, herbicidal effect rating (Italian ryegrass [7]): 0 (Herbicidal rate of 5% or less (almost no effect))
- L: windgrass, herbicidal effect rating (windgrass [8]): 0 (Herbicidal rate of 5% or less (almost no effect))
- M: velvetleaf, herbicidal effect rating (velvetleaf [9]): 0 (Herbicidal rate of 5% or less (almost no effect))
- N: redroot pigweed, herbicidal effect rating (redroot pigweed [10]): 3 (Herbicidal rate of 40% or more and less than 70%)
- O: lambsquarters, herbicidal effect rating (lambsquarters [11]): 3 (Herbicidal rate of 40% or more and less than 70%)
- P: chickweed, herbicidal effect rating (chickweed [12]): 0 (Herbicidal rate of 5% or less (almost no effect))
- Q: false cleavers, herbicidal effect rating (false cleavers): 0 (Herbicidal rate of 5% or less (almost no effect))
- R: persian speedwell, herbicidal effect rating (persian speedwell [13]): 4 (Herbicidal rate of 70% or more and less than 90%)
- herbicidal effect on F: southern crabgrass (criteria 0-5) (southern crabgrass [14]; 320 g/ha): 2 (Herbicidal rate of 20% or more and less than 40%)
- herbicidal effect on G: green foxtail (criteria 0-5) (green foxtail [15]; 320 g/ha): 0 (Herbicidal rate of 5% or less (almost no effect))
- herbicidal effect on H: barnyard grass (criteria 0-5) (barnyard grass [16]; 320 g/ha): 2 (Herbicidal rate of 20% or more and less than 40%)
- herbicidal effect on I: wild oat (criteria 0-5) (wild oat [17]; 320 g/ha): 0 (Herbicidal rate of 5% or less (almost no effect))
- herbicidal effect on J: blackgrass (criteria 0-5) (blackgrass [18]; 320 g/ha): 4 (Herbicidal rate of 70% or more and less than 90%)
- herbicidal effect on K: Italian ryegrass (criteria 0-5) (Italian ryegrass [19]; 320 g/ha): 0 (Herbicidal rate of 5% or less (almost no effect))
- herbicidal effect on L: windgrass (criteria 0-5) (windgrass [20]; 320 g/ha): 0 (Herbicidal rate of 5% or less (almost no effect))
- herbicidal effect on M: velvetleaf (criteria 0-5) (velvetleaf [21]; 320 g/ha): 2 (Herbicidal rate of 20% or more and less than 40%)
- herbicidal effect on N: redroot pigweed (criteria 0-5) (redroot pigweed [22]; 320 g/ha): 3 (Herbicidal rate of 40% or more and less than 70%)
- herbicidal effect on O: lambsquarters (criteria 0-5) (lambsquarters [23]; 320 g/ha): 4 (Herbicidal rate of 70% or more and less than 90%)
- herbicidal effect on P: chickweed (criteria 0-5) (chickweed [24]; 320 g/ha): 5 (Herbicidal rate of 90% or more (almost completely withered))
- herbicidal effect on R: persian speedwell (criteria 0-5) (persian speedwell [25]; 320 g/ha): 5 (Herbicidal rate of 90% or more (almost completely withered))

Structure (SMILES): Cc1nn(C)c(=O)c(-c2c(-c3ccc(OC(F)F)cc3)sc3ccc(F)cc23)c1OC(=O)N1CCOCC1 [2-290]
- herbicidal effect on H: barnyard grass (barnyard grass [1]): 4 (Herbicidal rate of 70% or more and less than 90%)
- herbicidal effect on D: Chinese sprangletop (Chinese sprangletop): 4 (Herbicidal rate of 70% or more and less than 90%)
- herbicidal effect on E: rice flat sedge (rice flat sedge): 3 (Herbicidal rate of 40% or more and less than 70%)
- herbicidal effect on F: southern crabgrass (southern crabgrass [2]): 0 (Herbicidal rate of 5% or less (almost no effect))
- herbicidal effect on G: green foxtail (green foxtail [3]): 0 (Herbicidal rate of 5% or less (almost no effect))
- herbicidal effect on H: barnyard grass (barnyard grass [4]): 0 (Herbicidal rate of 5% or less (almost no effect))
- herbicidal effect on I: wild oat (wild oat [5]): 0 (Herbicidal rate of 5% or less (almost no effect))
- herbicidal effect on J: blackgrass (blackgrass [6]): 0 (Herbicidal rate of 5% or less (almost no effect))
- herbicidal effect on K: Italian ryegrass (Italian ryegrass [7]): 0 (Herbicidal rate of 5% or less (almost no effect))
- herbicidal effect on L: windgrass (windgrass [8]): 0 (Herbicidal rate of 5% or less (almost no effect))
- herbicidal effect on M: velvetleaf (velvetleaf [9]): 0 (Herbicidal rate of 5% or less (almost no effect))
- herbicidal effect on N: redroot pigweed (redroot pigweed [10]): 1 (Herbicidal rate of 5% or more and less than 20%)
- herbicidal effect on O: lambsquarters (lambsquarters [11]): 3 (Herbicidal rate of 40% or more and less than 70%)
- herbicidal effect on P: chickweed (chickweed [12]): 0 (Herbicidal rate of 5% or less (almost no effect))
- herbicidal effect on Q: false cleavers (false cleavers): 0 (Herbicidal rate of 5% or less (almost no effect))
- herbicidal effect on R: persian speedwell (persian speedwell [13]): 3 (Herbicidal rate of 40% or more and less than 70%)
- F: southern crabgrass, herbicidal effect (criteria 0-5) (southern crabgrass [14]; AAH 320 g/ha): 0 (Herbicidal rate of 5% or less (almost no effect))
- G: green foxtail, herbicidal effect (criteria 0-5) (green foxtail [15]; AAH 320 g/ha): 2 (Herbicidal rate of 20% or more and less than 40%)
- H: barnyard grass, herbicidal effect (criteria 0-5) (barnyard grass [16]; AAH 320 g/ha): 2 (Herbicidal rate of 20% or more and less than 40%)
- I: wild oat, herbicidal effect (criteria 0-5) (wild oat [17]; AAH 320 g/ha): 0 (Herbicidal rate of 5% or less (almost no effect))
- J: blackgrass, herbicidal effect (criteria 0-5) (blackgrass [18]; AAH 320 g/ha): 0 (Herbicidal rate of 5% or less (almost no effect))
- K: Italian ryegrass, herbicidal effect (criteria 0-5) (Italian ryegrass [19]; AAH 320 g/ha): 0 (Herbicidal rate of 5% or less (almost no effect))
- L: windgrass, herbicidal effect (criteria 0-5) (windgrass [20]; AAH 320 g/ha): 0 (Herbicidal rate of 5% or less (almost no effect))
- M: velvetleaf, herbicidal effect (criteria 0-5) (velvetleaf [21]; AAH 320 g/ha): 4 (Herbicidal rate of 70% or more and less than 90%)
- N: redroot pigweed, herbicidal effect (criteria 0-5) (redroot pigweed [22]; AAH 320 g/ha): 5 (Herbicidal rate of 90% or more (almost completely withered))
- O: lambsquarters, herbicidal effect (criteria 0-5) (lambsquarters [23]; AAH 320 g/ha): 5 (Herbicidal rate of 90% or more (almost completely withered))
- P: chickweed, herbicidal effect (criteria 0-5) (chickweed [24]; AAH 320 g/ha): 5 (Herbicidal rate of 90% or more (almost completely withered))
- R: persian speedwell, herbicidal effect (criteria 0-5) (persian speedwell [25]; AAH 320 g/ha): 5 (Herbicidal rate of 90% or more (almost completely withered))

From US20230085307A1, “PYRIDAZINONE COMPOUND AND HERBICIDE” (NISSAN CHEMICAL CORPORATION, priority 2019, published 2023)
